The source of these data is paper PMC8198792, “Prediction of Anticancer Peptides with High Efficacy and Low Toxicity by Hybrid Model Based on 3D Structure of Peptides” (International Journal of Molecular Sciences, 2021).

Each structure is given as a SMILES string. Bridge positions count the residues as written; N and C are the ends. Peptide text beside a SMILES is read from it.

Data set [1] relates to human embryonic kidney cells (293T). Briefly: MTT assay on non-cancerous cells, 293T. The format is cell-based. Particulars: 24 h. From the text:
(§1) Five peptides were randomly selected from the candidate ACPs and synthesized by Changzhou Kanglong Biotech Ltd (Changzhou, China). using 9-fuorenylmethoxy carbonyl (FMOC) solid phase synthesis technology. The synthetic peptide was identified by mass spectrometry (MS), and the purity >95% by high performance liquid chromatography (HPLC). Human breast cancer cell line (MCF7), lung cancer cell line (A549), cervical cancer cell line (HeLa), colorectal adenocarcinoma cell line (LoVo) and human embryonic kidney cells (293T) were preserved in our laboratory. At 37 °C under 5/95% CO2/air condition, all cell lines were cultured in Dulbecco’s modified Eagle medium (DMEM) supplemented with 10% (v/v) fetal bovine serum (FBS, Gibco, Carlsbad, CA, USA) and 1% (v/v) penicillin/streptomycin (Sangon Biotech, Shanghai, China).
(§2) Human tumor cell lines MCF7, A549, HeLa and LoVo were used as experimental materials to detect the anticancer activity of peptides by MTT assay. In addition, human embryonic kidney cells 293T were also included in the experiment to examine the safety of the peptide against non-cancerous cells. […] Untreated cells as negative control group incubated with corresponding medium for 24 h. Subsequently, 10 uL, 5 mg/mL MTT (Sangon Biotech, Shanghai, China) solution was added to each well and incubated for 4 h at 37 °C. After the medium was discarded, 150 μL DMSO was added to each well for 10 min to dissolve formazan crystals. Absorbance was measured at 570 and 630 nm using a multiwall plate reader and the inhibition rate was expressed as the mean ± standard deviation (SD) of the triplicate data.
(Tetrazolium dyes change colour on reduction, which living cells bring about.)

The subject of data set [2] is Human breast cancer cell line (MCF7). The format is cell-based. Particulars: 24 h.
Description: as §1, §2

Data set [3] concerns cervical cancer cell line (HeLa). The format is cell-based, human. Particulars: 24 h.
Description: as §1, §2

In data set [4] the test system is lung cancer cell line (A549). The format is cell-based, human.
Description: as §1, §2

The test system of data set [5] is colorectal adenocarcinoma cell line (LoVo). The format is cell-based, human. Particulars: 24 h.
Description: as §1, §2

Turning to `CC[C@H](C)[C@H](NC(=O)CN)C(=O)N[C@@H](CC(C)C)C(=O)N[C@@H](CO)C(=O)N[C@@H](CO)C(=O)N[C@H](C(=O)N[C@@H](CCCCN)C(=O)NCC(=O)N[C@H](C(=O)N[C@@H](C)C(=O)N[C@@H](CCCCN)C(=O)NCC(=O)N[C@H](C(=O)N[C@@H](C)C(=O)N[C@@H](CCCCN)C(=O)N[C@@H](CC(N)=O)C(=O)N[C@H](C(=O)N[C@@H](C)C(=O)N[C@@H](C)C(=O)N[C@@H](CCC(N)=O)C(=O)N[C@@H](CC(C)C)C(=O)N[C@@H](CC(C)C)C(=O)N[C@@H](CC(=O)O)C(=O)N[C@H](C(=O)N[C@@H](CC(C)C)C(=O)N[C@@H](CCCCN)C(=O)N[C@H]1CSSC[C@@H](C(=O)O)NC(=O)CNC(=O)[C@H]([C@@H](C)O)NC(=O)[C@H]([C@@H](C)CC)NC(=O)[C@H](CCCCN)NC1=O)[C@@H](C)O)C(C)C)C(C)C)C(C)C)[C@@H](C)CC` [RANATUERIN-2Lb] (H-GILSSIKGVAKGVAKNVAAQLLDTLKCKITGC-OH; disulfide 27-32; N-terminus and C-terminus assumed), the IC50 in data set [1] came to 63.2 µM; in data set [2], 45.2 µM; in data set [3], 37.2 µM; in data set [4] (24 h), 15.3 µM; in data set [5], 59.8 µM. In data set [1] (low toxicity when the IC50 value exceeded 50 μM, MTT), the “toxicity to 293T cells (in words)” value is recorded as “low toxicity”. In data set [4] (A549 versus 293T, MTT IC50), the “selective killing effect on lung cancer A549 cells relative to 293T cells (in words)” value is “selective killing effect”. In addition, in data set [4] (MTT, 24 h, anticancer activity when IC50 less than 50 μM), the “killing effects on lung cancer cell A549 (in words)” value is “effective killing effects”.

Broadly, the IC50 is the concentration needed to halve the response being measured. Low values mean higher potency, high ones lower potency.
